Reference: ChEMBL document CHEMBL5303765, “Data for DCP probe BAY-7081” (2023)

Experiments:
Conditions in all cases: for ΔTm: Compound concentration 10.0 uM
[1] = target: Tyrosine-protein kinase ABL1 (Homo sapiens) (UniProt P00519); assay: ABL1 SGC Tm panel (DSF)
[2] = target: T1, Cytoplasmic tyrosine-protein kinase BMX (Homo sapiens) (UniProt P51813); assay: BMX SGC Tm panel (DSF)
T1 sequence (whole entry): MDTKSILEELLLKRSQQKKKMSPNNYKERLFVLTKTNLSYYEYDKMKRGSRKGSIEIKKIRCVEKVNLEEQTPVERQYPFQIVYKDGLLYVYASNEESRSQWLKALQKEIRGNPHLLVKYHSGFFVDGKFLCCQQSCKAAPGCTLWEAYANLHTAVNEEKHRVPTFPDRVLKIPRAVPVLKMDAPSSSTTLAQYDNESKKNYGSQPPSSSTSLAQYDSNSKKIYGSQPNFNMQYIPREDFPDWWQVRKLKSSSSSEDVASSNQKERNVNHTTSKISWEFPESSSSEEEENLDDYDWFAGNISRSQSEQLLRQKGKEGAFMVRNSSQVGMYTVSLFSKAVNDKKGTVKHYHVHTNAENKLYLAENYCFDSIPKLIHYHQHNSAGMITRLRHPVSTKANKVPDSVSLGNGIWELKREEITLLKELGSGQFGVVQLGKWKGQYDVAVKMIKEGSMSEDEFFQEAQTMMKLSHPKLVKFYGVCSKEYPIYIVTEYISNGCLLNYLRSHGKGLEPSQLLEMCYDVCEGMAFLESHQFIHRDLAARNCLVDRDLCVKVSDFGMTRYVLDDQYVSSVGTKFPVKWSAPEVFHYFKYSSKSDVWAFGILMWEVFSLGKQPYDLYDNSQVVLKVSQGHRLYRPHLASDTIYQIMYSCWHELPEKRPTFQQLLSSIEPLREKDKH

[3] = target: Bromodomain-containing protein 4 (Homo sapiens) (UniProt O60885); assay: BRD4 SGC Tm panel (DSF)
[4] = target: T2, Myotonin-protein kinase (Homo sapiens) (UniProt Q09013); assay: DMPK1 SGC Tm panel (DSF)
T2 sequence (whole entry): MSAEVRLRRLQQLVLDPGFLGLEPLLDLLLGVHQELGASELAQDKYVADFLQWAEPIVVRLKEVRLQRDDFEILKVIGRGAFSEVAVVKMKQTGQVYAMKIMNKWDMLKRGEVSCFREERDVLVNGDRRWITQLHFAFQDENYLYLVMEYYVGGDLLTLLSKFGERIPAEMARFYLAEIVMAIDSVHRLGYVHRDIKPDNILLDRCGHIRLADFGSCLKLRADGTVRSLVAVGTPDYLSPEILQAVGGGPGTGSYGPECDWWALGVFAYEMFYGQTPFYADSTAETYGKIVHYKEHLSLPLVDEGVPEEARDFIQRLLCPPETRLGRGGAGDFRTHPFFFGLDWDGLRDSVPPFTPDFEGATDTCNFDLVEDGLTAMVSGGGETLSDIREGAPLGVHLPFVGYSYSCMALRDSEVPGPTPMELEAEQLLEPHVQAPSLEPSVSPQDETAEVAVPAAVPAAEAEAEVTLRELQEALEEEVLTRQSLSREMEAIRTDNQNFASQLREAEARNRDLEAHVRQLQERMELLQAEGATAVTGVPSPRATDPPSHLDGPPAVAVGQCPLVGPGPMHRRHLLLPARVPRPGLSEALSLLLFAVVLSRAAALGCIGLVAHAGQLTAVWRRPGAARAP

[5] = target: T3, Mitogen-activated protein kinase 13 (Homo sapiens) (UniProt O15264); assay: MAPK13 SGC Tm panel (DSF)
T3 sequence (whole entry): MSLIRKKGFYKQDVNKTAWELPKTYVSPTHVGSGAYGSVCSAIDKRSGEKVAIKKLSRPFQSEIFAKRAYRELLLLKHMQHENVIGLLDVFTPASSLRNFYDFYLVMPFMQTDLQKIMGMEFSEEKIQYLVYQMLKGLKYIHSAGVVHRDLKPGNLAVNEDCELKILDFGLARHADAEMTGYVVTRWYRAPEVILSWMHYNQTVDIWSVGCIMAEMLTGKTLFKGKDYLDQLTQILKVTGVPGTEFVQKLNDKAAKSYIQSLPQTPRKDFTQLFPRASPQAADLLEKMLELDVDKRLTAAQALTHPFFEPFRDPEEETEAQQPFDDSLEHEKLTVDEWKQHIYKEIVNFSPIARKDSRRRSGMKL

[6] = target: Maternal embryonic leucine zipper kinase (Homo sapiens) (UniProt Q14680); assay: MELK SGC Tm panel (DSF)
[7] = target: T4, Serine/threonine-protein kinase 17B (Homo sapiens) (UniProt O94768); assay: STK17B SGC Tm panel (DSF)
T4 sequence (whole entry): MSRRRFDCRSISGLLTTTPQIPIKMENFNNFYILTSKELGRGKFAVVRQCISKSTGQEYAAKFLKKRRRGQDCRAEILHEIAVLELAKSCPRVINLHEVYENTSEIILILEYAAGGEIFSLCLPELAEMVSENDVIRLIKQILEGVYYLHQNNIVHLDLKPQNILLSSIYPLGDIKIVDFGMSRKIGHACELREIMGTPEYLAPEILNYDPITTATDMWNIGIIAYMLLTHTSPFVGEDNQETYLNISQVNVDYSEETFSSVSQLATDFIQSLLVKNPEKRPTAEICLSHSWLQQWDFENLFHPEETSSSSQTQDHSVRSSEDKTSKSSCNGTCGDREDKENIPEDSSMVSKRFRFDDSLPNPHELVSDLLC

[8] = target: Transcription initiation factor TFIID subunit 1 (Homo sapiens) (UniProt P21675); assay: TAF1 SGC Tm panel (DSF)
Chain of Transcription initiation factor TFIID subunit 1 (Homo sapiens) (P21675 whole entry): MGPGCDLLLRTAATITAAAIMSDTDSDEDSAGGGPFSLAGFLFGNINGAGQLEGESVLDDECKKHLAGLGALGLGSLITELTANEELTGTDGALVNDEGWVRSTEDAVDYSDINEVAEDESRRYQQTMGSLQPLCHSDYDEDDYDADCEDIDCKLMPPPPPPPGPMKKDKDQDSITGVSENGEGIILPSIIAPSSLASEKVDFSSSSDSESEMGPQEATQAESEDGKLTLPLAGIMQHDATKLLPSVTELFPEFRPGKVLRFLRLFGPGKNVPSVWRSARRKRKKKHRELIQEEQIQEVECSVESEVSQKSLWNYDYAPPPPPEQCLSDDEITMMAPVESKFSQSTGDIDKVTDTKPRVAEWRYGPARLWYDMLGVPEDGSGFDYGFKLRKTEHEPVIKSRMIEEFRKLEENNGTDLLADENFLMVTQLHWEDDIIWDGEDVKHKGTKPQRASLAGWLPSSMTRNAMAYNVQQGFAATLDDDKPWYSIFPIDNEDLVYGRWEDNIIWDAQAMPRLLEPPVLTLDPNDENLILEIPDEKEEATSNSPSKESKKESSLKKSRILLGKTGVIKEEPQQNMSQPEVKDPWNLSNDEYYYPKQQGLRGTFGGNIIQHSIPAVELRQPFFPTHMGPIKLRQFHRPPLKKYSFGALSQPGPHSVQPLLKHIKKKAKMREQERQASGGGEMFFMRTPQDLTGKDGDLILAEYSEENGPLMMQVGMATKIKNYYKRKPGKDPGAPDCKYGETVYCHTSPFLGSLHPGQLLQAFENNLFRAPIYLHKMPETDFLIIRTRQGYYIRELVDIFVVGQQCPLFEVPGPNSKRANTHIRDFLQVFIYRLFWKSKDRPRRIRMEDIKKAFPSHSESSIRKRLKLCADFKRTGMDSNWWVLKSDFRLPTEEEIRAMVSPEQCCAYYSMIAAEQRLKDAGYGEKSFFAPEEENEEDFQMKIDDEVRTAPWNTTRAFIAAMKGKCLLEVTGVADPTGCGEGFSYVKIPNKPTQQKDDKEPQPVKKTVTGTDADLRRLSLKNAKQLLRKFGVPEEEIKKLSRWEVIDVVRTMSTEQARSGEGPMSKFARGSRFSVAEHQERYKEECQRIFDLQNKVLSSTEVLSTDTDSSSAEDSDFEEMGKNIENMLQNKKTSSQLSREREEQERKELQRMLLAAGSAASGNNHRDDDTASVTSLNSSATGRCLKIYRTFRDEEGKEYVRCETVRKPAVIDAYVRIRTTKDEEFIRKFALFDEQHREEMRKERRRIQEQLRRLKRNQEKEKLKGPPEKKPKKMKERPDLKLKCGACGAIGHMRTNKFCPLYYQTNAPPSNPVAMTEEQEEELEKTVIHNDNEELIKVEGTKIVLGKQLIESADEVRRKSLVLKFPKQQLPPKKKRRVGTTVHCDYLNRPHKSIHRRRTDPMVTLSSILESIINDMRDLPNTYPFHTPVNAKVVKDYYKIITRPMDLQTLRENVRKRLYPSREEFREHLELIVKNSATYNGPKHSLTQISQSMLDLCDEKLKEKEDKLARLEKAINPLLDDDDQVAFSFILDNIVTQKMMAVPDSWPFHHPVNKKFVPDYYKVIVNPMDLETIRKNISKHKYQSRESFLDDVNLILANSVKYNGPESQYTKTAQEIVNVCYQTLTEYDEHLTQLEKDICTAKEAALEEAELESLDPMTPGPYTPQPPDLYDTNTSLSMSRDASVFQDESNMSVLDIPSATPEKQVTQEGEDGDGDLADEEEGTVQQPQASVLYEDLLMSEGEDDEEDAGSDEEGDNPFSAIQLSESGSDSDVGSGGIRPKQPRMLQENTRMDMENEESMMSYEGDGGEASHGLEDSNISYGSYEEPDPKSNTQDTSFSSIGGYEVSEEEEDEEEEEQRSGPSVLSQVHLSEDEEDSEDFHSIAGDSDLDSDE

Chain of Maternal embryonic leucine zipper kinase (Homo sapiens) (Q14680 whole entry, looked up): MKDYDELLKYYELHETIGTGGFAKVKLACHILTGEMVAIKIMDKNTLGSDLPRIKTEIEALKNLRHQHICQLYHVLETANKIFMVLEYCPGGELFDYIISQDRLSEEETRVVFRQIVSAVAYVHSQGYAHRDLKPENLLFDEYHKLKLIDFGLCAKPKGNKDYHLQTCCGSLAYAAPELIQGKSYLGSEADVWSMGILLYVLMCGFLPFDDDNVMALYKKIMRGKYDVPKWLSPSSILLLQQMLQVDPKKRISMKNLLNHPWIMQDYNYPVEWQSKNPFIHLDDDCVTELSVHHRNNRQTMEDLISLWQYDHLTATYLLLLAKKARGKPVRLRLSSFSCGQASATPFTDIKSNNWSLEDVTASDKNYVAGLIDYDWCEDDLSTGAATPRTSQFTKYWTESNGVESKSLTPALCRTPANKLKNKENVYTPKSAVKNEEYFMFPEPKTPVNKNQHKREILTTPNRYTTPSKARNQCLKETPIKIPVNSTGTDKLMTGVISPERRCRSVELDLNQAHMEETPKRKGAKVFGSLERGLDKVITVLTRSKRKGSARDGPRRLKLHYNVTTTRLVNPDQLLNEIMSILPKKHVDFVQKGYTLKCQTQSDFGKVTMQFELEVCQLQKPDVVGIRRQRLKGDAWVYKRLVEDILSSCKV
Chain of Tyrosine-protein kinase ABL1 (Homo sapiens) (P00519 whole entry): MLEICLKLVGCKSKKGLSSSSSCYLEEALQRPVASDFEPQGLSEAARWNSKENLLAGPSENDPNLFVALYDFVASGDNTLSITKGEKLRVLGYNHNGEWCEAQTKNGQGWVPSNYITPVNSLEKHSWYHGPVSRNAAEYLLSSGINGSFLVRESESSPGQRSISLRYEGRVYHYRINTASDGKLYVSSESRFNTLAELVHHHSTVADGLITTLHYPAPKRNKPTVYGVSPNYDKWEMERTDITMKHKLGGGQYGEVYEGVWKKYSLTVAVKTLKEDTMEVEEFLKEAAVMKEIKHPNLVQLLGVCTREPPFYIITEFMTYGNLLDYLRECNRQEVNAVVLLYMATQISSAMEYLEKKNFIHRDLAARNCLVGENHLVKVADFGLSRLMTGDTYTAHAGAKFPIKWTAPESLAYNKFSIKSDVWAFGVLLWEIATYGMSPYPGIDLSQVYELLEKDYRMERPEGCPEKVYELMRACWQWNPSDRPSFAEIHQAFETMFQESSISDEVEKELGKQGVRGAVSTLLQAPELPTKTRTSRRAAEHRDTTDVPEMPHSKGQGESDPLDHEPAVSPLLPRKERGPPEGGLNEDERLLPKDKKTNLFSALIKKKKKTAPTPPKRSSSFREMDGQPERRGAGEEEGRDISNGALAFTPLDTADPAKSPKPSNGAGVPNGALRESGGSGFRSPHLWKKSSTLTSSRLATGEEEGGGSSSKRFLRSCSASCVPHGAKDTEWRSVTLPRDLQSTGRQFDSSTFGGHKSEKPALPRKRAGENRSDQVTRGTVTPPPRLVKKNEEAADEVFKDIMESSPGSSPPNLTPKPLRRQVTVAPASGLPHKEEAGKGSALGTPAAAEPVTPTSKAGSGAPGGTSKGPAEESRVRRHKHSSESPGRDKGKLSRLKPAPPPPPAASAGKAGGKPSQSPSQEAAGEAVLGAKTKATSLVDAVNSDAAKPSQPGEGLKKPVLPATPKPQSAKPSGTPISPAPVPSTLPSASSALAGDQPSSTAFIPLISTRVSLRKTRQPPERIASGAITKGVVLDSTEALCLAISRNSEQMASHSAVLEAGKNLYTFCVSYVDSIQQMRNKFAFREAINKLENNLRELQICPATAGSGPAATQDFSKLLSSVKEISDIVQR

| Compound | delta Tm Staurosporine positive control [1] | ΔTm [1] | delta Tm Staurosporine positive control [2] | ΔTm [2] | delta Tm Staurosporine positive control [3] | ΔTm [3] | delta Tm Staurosporine positive control [4] | ΔTm [4] | delta Tm Staurosporine positive control [5] | ΔTm [5] | delta Tm Staurosporine positive control [6] | ΔTm [6] | delta Tm Staurosporine positive control [7] | ΔTm [7] | delta Tm Staurosporine positive control [8] | ΔTm [8] |
| --- | --- | --- | --- | --- | --- | --- | --- | --- | --- | --- | --- | --- | --- | --- | --- | --- |
| CCC[C@H]1CNCc2c1[nH]c(=O)c(C#N)c2N1CCC2(CC1)CC2 | 8.44 | 0.111 | 7.31 | -0.224 | 2.04 | 0.19 | 9.38 | -0.0275 | 8.03 | 0.098 | 14.2 | -0.201 | 10.6 | -0.858 | 0.516 | 1.56 |
| CCC[C@@H]1CNCc2c1[nH]c(=O)c(C#N)c2N1CCC2(CC1)CC2 | 8.44 | 0.0781 | 7.31 | -0.292 | 2.04 | 0.857 | 9.38 | -0.138 | 8.03 | 0.124 | 14.2 | 0.193 | 10.6 | -0.79 | 0.516 | 0.967 |
